A short description of series [1]: Cluster concentration from saturated solutions in a variety of solvents (solubility). Type of series: physicochemical. The protocol: Optical absorbencies at ˜330 and ˜400 nm were used to track cluster concentration in solution. An approximate molar extinction coefficient was determined by dissolving an isolated and purified cluster sample in water and measuring its absorption. […] Early in the study, the highest sample concentration was 30 mM.
Substitutional doping of divalent zinc on trivalent tantalum sites provides for a reduction in the overall cluster charge. A reduction in the overall cluster charge is also attainable by adjusting the redox chemistry of the starting mixture. Target materials include (Ta6Cl12)Cl2, (Ta6Br12)Cl2, […], (Ta6Br12)Br2, (Ta6I12)I2, (Ta6Cl11O)Cl2, (Ta6Cl11S)CI2, and (Ta5ZnCl12)Cl2. […] These compositions were targeted to elicit materials with enhanced solubility or molecular handles that could be leveraged to further enhance the solubility. […] In the table below, EtOH stands for ethyl alcohol, EG stands for ethylene glycol, PS80 stands for Polysorbate 80, DMSO stands for dimethyl sulfoxide, and EDTA stands for ethylenediaminetetraacetic acid.
The solubility of (Ta6Cl12)Cl2 in an aqueous solution of saturated polyvinyl alcohol) (PVA) was investigated by stirring purified (Ta6Cl12)Cl2 with a solution of saturated PVA (MW-50k-85k, hydrolyzed).

How the values of series [2] were obtained:
An ultrapurified tantalum cluster of formula (Ta6Cl12)Cl2 (Ultra Purified Ta Ta:TaCl5=1.2) was dissolved in water at a concentration of 355 mM, and in ethylene glycol at a concentration of 592 mM. The resulting water solutions were subjected to radiography to gauge their X-ray absorption characteristics. The samples were loaded into 2 mL polypropylene screw cap tubes with a 1 cm inner diameter. These samples were imaged alongside four calibration standards: 1) aluminum step wedge, 2) polycarbonate step wedge, 3) tantalum foils from 0.0127 to 0.5 mm thick, and 4) a water dilution series containing from 0 to 100% by volume of GE Healthcare's iodinated contrast agent, Visipaque, that contains 320 mg I/mL, in the same 2 mL tubes. Images were collected on a GE Healthcare OEC 9900 Elite digital X-ray Imaging System with a Tri-mode Image Intensifier at 50 KeV with filament currents varied from 0.4 to 9.0 mA. FIG. 2 below is a characteristic image of candidate aqueous samples (first two samples from the left) from the left, marked A and B) alongside calibration samples.
FIG. 3 is imaged through 8 cm of water serving as a low X-ray energy filter and simulating an arm or leg phantom to produce clinically equivalent images. […]

Series [3] is described as follows: Solubility of purified cluster in saturated aqueous poly(vinyl alcohol) solution. Type of series: physicochemical. The following applies: saturated PVA (MW 50k-85k, hydrolyzed), stirred. The source says:
The solubility of (Ta6Cl12)Cl2 in an aqueous solution of saturated polyvinyl alcohol) (PVA) was investigated by stirring purified (Ta6Cl12)Cl2 with a solution of saturated PVA (MW-50k-85k, hydrolyzed). […] It appeared that PVA complexes of tantalum clusters were poorly soluble in water.

In the case of (Ta6Cl12)Cl2 [Ta Red, Ta:TaCl5=1.2], in series [1], the “Cluster concentration from saturated solution, 5% EDTA” value came out at 12 mM; the “Cluster concentration from saturated solution, DMSO” value is reported as 2 mM; the “Cluster concentration from saturated solution, H2O” value is reported as 59 mM.
On to (Ta6Cl12)Cl2 [Ultra purified Ta Red], for which, in series [2], the “Remaining soluble cluster X-ray absorption, as equivalent Visipaque calibration solution” value is about 37.5% and the “Remaining soluble cluster X-ray absorption, as equivalent tantalum foil stack thickness” value is about 0.0889 mm. In addition, in series [1], the “Cluster concentration from saturated solution, EG” value turned out to be 592 mM and the “Cluster concentration from saturated solution, H2O” value worked out at 355 mM.
Take (Ta6Cl12)Cl2: the “Solubility in aqueous solution of saturated poly(vinyl alcohol)” value in series [3] is on record as “most of the color was lost as a deep green precipitate formed”.

The values above are taken from US20120148501A1, “RADIOLOGICAL IMAGE ENHANCEMENT WITH TANTALUM CLUSTERS” (priority 2010, published 2012).
